Test results published in patent publication US8765117B2, “Generation of vascularized human heart tissue and uses thereof” (The General Hospital Corporation, priority 2009, dated 2014).
Entries after “also recorded” stand apart in the source; their conditions may differ.

Key:
Format in all cases: cell-based
[1] = tested on: human ISL1-βgeo BAC transgenic cells; experiment: Expansion of hES cell-derived ISL1+ clones on mouse CMC feeders with BIO
Procedure: FIGS. 9A-9B show the expansion and characterization of hES cell-derived ISL1+ cardiac progenitors. FIG. 9A show ISL1+ cells increased by BIO treatment. Day 6 EBs of human ISL1-βgeo BAC transgenic cells were dissociated and cultured on mouse CMC feeders for two days before treated with and without BIO for another five days. Colonies were stained with anti-ISL1 antibody and counted for ISL1+ ones. […] Cells dissociated from day 7 EBs of human ISL1-cre DsRed cells were plated on Wnt3a-secreting feeders, cultured for five days and FACS isolated. Gene expression of DsRed+ cells was compared with DsRed− cells. Bars represent mean±s.d.; n=3.
Canonical Wnt pathways can promote the expansion of Isl1+ cardiac progenitors in the mouse^18-20. […] The inventors then isolated human ISL1-cre DsRed cells from day 7 EBs, which were dissociated and plated on a plastic surface, MEF, Wnt3a-secreting, or L cell feeders.

mouse Isl1+ cells = experiment: Vasculargenic commitment of mouse ES cells into mouse Isl1+/CD31+ cells (FACS with anti-CD31); conditions: for proportion of Isl1−/CD31+ cells: mouse ES cells; for vasculargenic commitment / differentiation into Isl1+/CD31+ cells (in words): mouse cells
[2] = tested on: human Isl1+ primordial progenitors; experiment: Differentiation of human Isl1+ primordial progenitors along vasculargenic lineages into Isl1+/CD31+ cells (FACS with anti-CD31); conditions: for increase of human Isl1+/CD31+ (GFP+/CD31+) cells: VEGF D4-D22 or ALK5 inhibitor D7-D22, compared to absence of the agent; for proportion of Isl1−/CD31+ cells: human ES cells
Excerpt: When Isl1+ is expressed in this ES cell line, the cells co-express GFP.

| Compound | ISL1+ cells (in words) ([1]; BIO for five days on mouse CMC feeders) | increase of human ISL1+ clones ([1]; compared to CMC control) | proportion of Isl1−/CD31+ cells (mouse Isl1+ cells) | vasculargenic commitment / differentiation into Isl1+/CD31+ cells (in words) (mouse Isl1+ cells) | vasculargenic commitment / differentiation into Isl1+/CD31+ cells (in words) (mouse Isl1+ cells; listed as ALK5i) | increase of human Isl1+/CD31+ (GFP+/CD31+) cells [2] | increase of human Isl1+/CD31+ (GFP+/CD31+) cells ([2]; listed as ALK5i) [fold] | proportion of Isl1−/CD31+ cells [2] | vasculargenic commitment / differentiation into human Isl1+/CD31+ cells (in words) [2] | vasculargenic commitment / differentiation into human Isl1+/CD31+ cells (in words) ([2]; listed as ALK5i) | overall human Isl1+ (GFP+) population ([2]; prolonged treatment) | vessel-like structures (mouse Isl1+ cells; Isl1+ (YFP+) cells sorted at D8, cultured with VEGF until D20) | increase of efficiency of differentiation into Isl1+/CD31+ cells (mouse Isl1+ cells; mouse Isl1+ cells, VEGF about 2 weeks from D4) | vessel-like structures in vitro ([2]; VEGF treatment) |
| --- | --- | --- | --- | --- | --- | --- | --- | --- | --- | --- | --- | --- | --- | --- |
| O=C1Nc2cc(Br)ccc2/C1=C1/Nc2ccccc2/C1=N\O [BIO, 6-bromoindirubin-3′-oxime] | increased | over 30% |  |  |  |  |  |  |  |  |  |  |  |  |
| NC(=O)c1ccc(-c2nc(-c3ccc4c(c3)OCO4)c(-c3ccccn3)[nH]2)cc1 [SB431542, 4-[4-(1,3-Benzodioxol-5-yl)-5-(2-pyridinyl)-1H-imidazol-2-yl]-benzamide] |  |  | increases the proportion of Isl1−/CD31+ cells | increases the efficiency of differentiation | promotes the vasculargenic commitment | 4-5 fold | 4 to 5 | increases the proportion of Isl1−/CD31+ cells | increases the efficiency of differentiation | promotes the vasculargenic commitment | reduced the overall human Isl1+ (GFP+) population |  |  |  |
| VEGF |  |  | increases the proportion of Isl1−/CD31+ cells | promotes the vasculargenic commitment; also recorded: increases efficiency of differentiation |  |  |  | increases the proportion of Isl1−/CD31+ cells | promotes the vasculargenic commitment |  |  | demonstrated vessel-like structures | at least 2 fold | produced vessel-like structures in vitro |
